According to patent publication US20200215142A1, “PHARMACEUTICAL COMPOSITION CONTAINING AVOCADO OIL FRACTION AS ACTIVE INGREDIENT FOR PREVENTION OR TREATMENT OF HEARING LOSS” (DONG KOOK PHARM CO., LTD, priority 2017, published 2020):

Legend:
[1] = system: hair cells of zebrafish reduced by neomycin; test: Hair cells of zebrafish larvae reduced by neomycin (ototoxicity), YO-PRO staining and fluorescence microscope count; format: in vivo; conditions: neomycin 1 μM 1 h, then single substance 1 μg/ml 12 h (FIGS. 7, 8)
Experimental: Particularly, 6 days after fertilization, zebrafish […] placed in 24-well plates and neomycin was added thereto at the concentration of 1 μM. One hour later, neomycin was removed and the isopropanol fraction of avocado oil prepared in Example 1 was added at the concentration of 1 μg/ml. At this time, avocado oil was used as the control and 0.03% (w/v) sea salt solution was used as the untreated control. Twelve hours later, 0.1% YO-PRO (Life Technologies, USA) was added to stain hair cells of the […] for 30 minutes. […] Particularly, 6 days after fertilization, zebrafish […] placed in 24-well plates and neomycin was added thereto at the concentration of 1 μM. One hour later, neomycin was removed and A-E were added at the concentration of 10 μg/ml. At this time, 0.03% (w/v) sea salt solution was used as the control. Twelve hours later, 0.1% YO-PRO (Life Technologies, USA) was added to stain hair cells of the […] for 30 minutes. The stained hair cells were observed using a fluorescence microscope (Olympus 1x70, Olympus, Japan), and the number of the observed hair cells was counted and analyzed.

[2] = system: hair cells of zebrafish reduced by kanamycin; format: in vivo; conditions: kanamycin 1 μM vs neomycin 1 μM, 1 h; comparison of Experimental Examples 6 and 7
Experimental: Particularly, 6 days after fertilization, zebrafish larvaes were placed in 24-well plates and kanamycin was added thereto at the concentration of 1 μM. One hour later, kanamycin was removed and IPG and BG were added at the concentration of 10 μg/ml. At this time, 0.03% (w/v) sea salt solution was used as the control. Twelve hours later, 0.1% YO-PRO (Life Technologies, USA) was added to stain hair cells of the larvaes for 30 minutes. The stained hair cells were observed using a fluorescence microscope (Olympus 1x70, Olympus, Japan), and the number of the observed hair cells was counted and analyzed. As a result, the number of hair cells observed with a fluorescence microscope was shown in FIG. 11 and photomicrographs of the hair cells taken with a fluorescence microscope were shown in FIG. 12.

Structure (SMILES) | number of hair cells [1] | toxicity to hair cells of zebrafish fry (reduction of the number of hair cells) [2]
CC/C=C\C/C=C\C/C=C\CCCCCCCC(=O)O [alpha-linolenic acid] | significantly increased | 
CCCCCCCCCCCCCCCCCC(=O)O [stearic acid] | significantly increased | 
NC[C@H]1O[C@H](O[C@H]2[C@H](O)[C@@H](O[C@H]3O[C@H](CO)[C@@H](O)[C@H](N)[C@H]3O)[C@H](N)C[C@@H]2N)[C@H](O)[C@@H](O)[C@@H]1O [kanamycin] |  | more toxic than neomycin
CCCCC/C=C\C/C=C\CCCCCCCC(=O)O [linoleic acid] | significantly increased | 
